Source: PubChem BioAssay (NCI)
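GI50 = concentration required for 50% inhibition of growth. TGI marks complete inhibition of growth.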

Legend:
Assay in all cases: NCI anticancer screen, dose series, 384-well format
HCC-2998 colon = system: HCC-2998 colon
OVCAR-5 ovarian = system: OVCAR-5 ovarian
SN12C renal = system: SN12C renal
NCI/ADR-RES ovarian = system: NCI/ADR-RES ovarian
HCT-15 colon = system: HCT-15 colon
CAKI-1 renal = system: CAKI-1 renal
SF-539 CNS = system: SF-539 CNS
NCI-H226 lung = system: NCI-H226 lung
U251 glioblastoma = system: U251 glioblastoma
MOLT-4 leukemia = system: MOLT-4 leukemia
M14 melanoma = system: M14 melanoma
SNB-19 CNS = system: SNB-19 CNS
RPMI-8226 leukemia = system: RPMI-8226 leukemia
A549 NSCLC = system: A549 NSCLC
CCRF-CEM leukemia = system: CCRF-CEM leukemia
A498 renal = system: A498 renal
HL-60(TB) leukemia = system: HL-60(TB) leukemia
NCI-H322M lung = system: NCI-H322M lung
SK-OV-3 ovarian = system: SK-OV-3 ovarian
SK-MEL-28 melanoma = system: SK-MEL-28 melanoma
MALME-3M melanoma = system: MALME-3M melanoma
MDA-MB-468 breast = system: MDA-MB-468 breast
EKVX NSCLC = system: EKVX NSCLC
IGROV1 ovarian = system: IGROV1 ovarian
TK-10 renal = system: TK-10 renal
UACC-62 melanoma = system: UACC-62 melanoma
OVCAR-3 ovarian = system: OVCAR-3 ovarian
NCI-H460 NSCLC = system: NCI-H460 NSCLC
NCI-H23 lung = system: NCI-H23 lung
786-0 renal = system: 786-0 renal
OVCAR-4 ovarian = system: OVCAR-4 ovarian
SNB-75 CNS = system: SNB-75 CNS
MCF7 breast = system: MCF7 breast
NCI-H522 lung = system: NCI-H522 lung
ACHN renal = system: ACHN renal
MDA-MB-435 melanoma = system: MDA-MB-435 melanoma
SF-295 CNS = system: SF-295 CNS
HS 578T breast = system: HS 578T breast
PC-3 prostate = system: PC-3 prostate
SR leukemia = system: SR leukemia
HT29 colon = system: HT29 colon
SK-MEL-2 melanoma = system: SK-MEL-2 melanoma
SK-MEL-5 melanoma = system: SK-MEL-5 melanoma
DU-145 prostate = system: DU-145 prostate
T-47D breast = system: T-47D breast
MDA-MB-231 breast = system: MDA-MB-231 breast
KM12 colon = system: KM12 colon
COLO 205 colon = system: COLO 205 colon
HOP-62 NSCLC = system: HOP-62 NSCLC
HOP-92 NSCLC = system: HOP-92 NSCLC
RXF 393 renal = system: RXF 393 renal
SF-268 CNS = system: SF-268 CNS
SW-620 colon = system: SW-620 colon
UACC-257 melanoma = system: UACC-257 melanoma
OVCAR-8 ovarian = system: OVCAR-8 ovarian
BT-549 breast = system: BT-549 breast

CN(C)CCN1C(=O)c2cccc3cc(N)cc(c23)C1=O
GI50 (HCC-2998 colon): 2010 nM | TGI (HCC-2998 colon): 5.47 µM | GI50 (OVCAR-5 ovarian): 2460 nM | TGI (OVCAR-5 ovarian): 6.66 µM | GI50 (SN12C renal): 2530 nM | TGI (SN12C renal): 11.4 µM | GI50 (NCI/ADR-RES ovarian): 2800 nM | TGI (NCI/ADR-RES ovarian): 7.79 µM | GI50 (HCT-15 colon): 2560 nM | TGI (HCT-15 colon): 8.07 µM | GI50 (CAKI-1 renal): 2200 nM | TGI (CAKI-1 renal): 6.36 µM | GI50 (SF-539 CNS): 2220 nM | TGI (SF-539 CNS): 6.64 µM | GI50 (NCI-H226 lung): 2020 nM | TGI (NCI-H226 lung): 4.05 µM | GI50 (U251 glioblastoma): 2380 nM | TGI (U251 glioblastoma): 5.62 µM | GI50 (MOLT-4 leukemia): 242 nM | TGI (MOLT-4 leukemia): 572 nM | GI50 (M14 melanoma): 2720 nM | TGI (M14 melanoma): 7.79 µM | GI50 (SNB-19 CNS): 2160 nM | TGI (SNB-19 CNS): 6.75 µM | GI50 (RPMI-8226 leukemia): 1400 nM | TGI (RPMI-8226 leukemia): 2820 nM | GI50 (A549 NSCLC): 1170 nM | TGI (A549 NSCLC): 3.64 µM | GI50 (CCRF-CEM leukemia): 1000 nM | TGI (CCRF-CEM leukemia): 2190 nM | GI50 (A498 renal): 1260 nM | TGI (A498 renal): 4.62 µM | GI50 (HL-60(TB) leukemia): 1090 nM | TGI (HL-60(TB) leukemia): 2350 nM | GI50 (NCI-H322M lung): 4.51 µM | TGI (NCI-H322M lung): 18.2 µM | GI50 (SK-OV-3 ovarian): 2120 nM | TGI (SK-OV-3 ovarian): 6.21 µM | GI50 (SK-MEL-28 melanoma): 4.01 µM | TGI (SK-MEL-28 melanoma): 8.86 µM | GI50 (MALME-3M melanoma): 2200 nM | TGI (MALME-3M melanoma): 4.92 µM | GI50 (MDA-MB-468 breast): 1880 nM | TGI (MDA-MB-468 breast): 4.73 µM | GI50 (EKVX NSCLC): 4.87 µM | TGI (EKVX NSCLC): 19.6 µM | GI50 (IGROV1 ovarian): 3.07 µM | TGI (IGROV1 ovarian): 16.5 µM | GI50 (TK-10 renal): 2340 nM | TGI (TK-10 renal): 7.61 µM | GI50 (UACC-62 melanoma): 1850 nM | TGI (UACC-62 melanoma): 3.61 µM | GI50 (OVCAR-3 ovarian): 4.01 µM | TGI (OVCAR-3 ovarian): 14 µM | GI50 (NCI-H460 NSCLC): 791 nM | TGI (NCI-H460 NSCLC): 2270 nM | GI50 (NCI-H23 lung): 2450 nM | TGI (NCI-H23 lung): 5.59 µM | GI50 (786-0 renal): 3.13 µM | TGI (786-0 renal): 13.5 µM | GI50 (OVCAR-4 ovarian): 2620 nM | TGI (OVCAR-4 ovarian): 5.94 µM | GI50 (SNB-75 CNS): 1350 nM | TGI (SNB-75 CNS): 4.62 µM | GI50 (MCF7 breast): 2920 nM | TGI (MCF7 breast): 16.3 µM | GI50 (NCI-H522 lung): 1340 nM | TGI (NCI-H522 lung): 3.03 µM | GI50 (ACHN renal): 2310 nM | TGI (ACHN renal): 4.44 µM | GI50 (MDA-MB-435 melanoma): 3.44 µM | TGI (MDA-MB-435 melanoma): 12 µM | GI50 (SF-295 CNS): 2770 nM | TGI (SF-295 CNS): 12.1 µM | GI50 (HS 578T breast): 1420 nM | TGI (HS 578T breast): 5.1 µM | GI50 (PC-3 prostate): 3.49 µM | TGI (PC-3 prostate): 11.3 µM | GI50 (SR leukemia): 1380 nM | TGI (SR leukemia): 2690 nM | GI50 (HT29 colon): 2500 nM | TGI (HT29 colon): 6.43 µM | GI50 (SK-MEL-2 melanoma): 4.1 µM | TGI (SK-MEL-2 melanoma): 6.11 µM | GI50 (SK-MEL-5 melanoma): 1960 nM | TGI (SK-MEL-5 melanoma): 3.53 µM | GI50 (DU-145 prostate): 2280 nM | TGI (DU-145 prostate): 14.2 µM | GI50 (T-47D breast): 2730 nM | TGI (T-47D breast): 6.62 µM | GI50 (MDA-MB-231 breast): 2030 nM | TGI (MDA-MB-231 breast): 5.55 µM | GI50 (KM12 colon): 2850 nM | TGI (KM12 colon): 14.8 µM | GI50 (COLO 205 colon): 1980 nM | TGI (COLO 205 colon): 5.32 µM | GI50 (HOP-62 NSCLC): 1500 nM | TGI (HOP-62 NSCLC): 3.65 µM | GI50 (HOP-92 NSCLC): 2490 nM | TGI (HOP-92 NSCLC): 6.89 µM | GI50 (RXF 393 renal): 2470 nM | TGI (RXF 393 renal): 6.06 µM | GI50 (SF-268 CNS): 3.06 µM | TGI (SF-268 CNS): 8.24 µM | GI50 (SW-620 colon): 3.12 µM | TGI (SW-620 colon): 12.1 µM | GI50 (UACC-257 melanoma): 2680 nM | TGI (UACC-257 melanoma): 6.03 µM | GI50 (OVCAR-8 ovarian): 1800 nM | TGI (OVCAR-8 ovarian): 3.63 µM | GI50 (BT-549 breast): 2870 nM | TGI (BT-549 breast): 7.03 µM
